Where two headings read alike, the source gives them in different places. No end group written: not given here.
Assays:
[1] = test system: Phoma betae; format: cell-based; details: P betae, 48 hours of incubation
[2] = test system: Fusarium culmorum; test: Stability of the antifungal activity of the Mj-AMPs; format: cell-based
Description: Antifungal activity was measured by microspectrophotometry as previously described (Broekaert, WF et al; 1990; FEMS Microbiol Lett, 69, 55-60). Routinely, tests were performed with 20 μl of a (filter-sterilized) test solution and 80 μl of a fungal spore suspension (2×10^4 spores/ml) in half strength Potato Dextrose Broth (Difco). Control microcultures contained 20 μl of (sterile) distilled water and 80 μl of the fungal spore suspension. Unless otherwise stated the test organism was Fusarium culmorum and incubation was done at 25° C. for 48 hours. Percent growth inhibition is defined as 100 times the ratio of the corrected absorbance of the control microculture minus the corrected absorbance of the test microculture over the corrected absorbance at 595 nm of the control microculture. The corrected absorbance values equal the absorbance at 595 nm of the culture measured after 48 hours minus the absorbance at 595 nm measured after 30 min. Values of growth inhibition lower than 10% are not indicated on the chromatograms.
Table 1 summarises the results of further testing of the stability of the antifungal activity of the Mj-AMPs. Tests for antifungal activity were performed with 20 μl samples diluted five-fold with growth medium containing Fusarium culmorum spores (2×10^4 spores/ml), according to the assay method given in Example 2. Control samples contained either Mj-AMP1 at 500 μg/ml or Mj-AMP2 at 100 μg/ml in 10 mM sodium phosphate buffer (pH 7). Reduction was done by addition of DTT at 2.5 mM followed by incubation at 37° C. for 2 hours. pH stability was tested in the following buffers: 20 mM glycine-HCl (pH 2 and 3); 20 mM diethanolamine-HCl (pH 10); and 20 mM glycine-NaOH (pH 11). After 1 hour of incubation in the appropriate buffers the samples were dialyzed for 16 hours against 10 mm sodium phosphate buffer (pH 7). For digestions, proteases were added at 100 μg/ml and incubated at 37° C. for 16 hours.

[3] = test system: Pyricularia oryzae; format: cell-based
[4] = test system: Nectria haematococca; format: cell-based; details: N haematococca, 48 hours of incubation
[5] = test system: Saccharomyces cerevisiae; test: Inhibitory activity against yeast; format: cell-based; parameters: key: +++:complete inhibition; +:some inhibition; -:no inhibition
Description: The inhibitory activity of Mj-AMPs against yeast, Saccharomyces cerevisiae was tested. The results shown in Table 5 indicate that Mj-AMPs do inhibit the growth of yeast at concentrations of 500 μg/ml or above.

[6] = test system: Alternaria brassicola; format: cell-based; details: A brassicola, 48 hours of incubation
[7] = test system: Ascochyta pisi; format: cell-based; details: A pisi, 48 hours of incubation
[8] = test system: Fusarium oxysporum f.sp. lycopersici; format: cell-based; details: 48 hours of incubation
[9] = test system: Pyrenophora tritici-repentis; format: cell-based; details: P tritici-repentis, 48 hours of incubation
[10] = test system: Verticillium dahliae; format: cell-based; details: V dahliae, 48 hours of incubation
[11] = test system: Colletotrichum lindemuthianum; format: cell-based; details: C lindemuthianum
[12] = test system: Fusarium oxysporum f.sp. pisi; format: cell-based; details: 48 hours of incubation
[13] = test system: Botrytis cinerea; format: cell-based; details: B cinerea, 48 hours of incubation
[14] = test system: Venturia inaequalis; format: cell-based; details: V inaequalis, 10 days of incubation
[15] = test system: Fusarium culmorum; format: cell-based; details: F culmorum, 48 hours of incubation
[16] = test system: Erwinia carotovora; test: Antibacterial activity in vitro test; format: cell-based; details: E carotovora, 48 hours
Description: (§1) The antibacterial activity of the Mj-AMPs was tested against a range of gram-positive and gram-negative bacteria: Bacillus megaterium, Sarcina lutea, Escherichia coli and Erwinia carotovora. β-purothionin and UDA were also tested for comparison (see Example 7). Tests were performed in soft agarose medium containing 1% tryptone and, with or without 1 mM CaCl2 and 50 mM KCl. Absorbance, 595 nm, of the culture was measured after 48 hours.

[17] = test system: Escherichia coli; test: Antibacterial activity in vitro test; format: cell-based; details: E coli, 48 hours
Description: as §1

[18] = test system: Sarcina lutea; test: Antibacterial activity in vitro test; format: cell-based; details: S lutea, 48 hours
Description: as §1

[19] = test system: Bacillus megaterium; test: Antibacterial activity in vitro test; format: cell-based; details: B megaterium, 48 hours
Description: as §1

[20] = Isoelectric focusing; format: physicochemical; details: isoelectric focusing on Immobiline Dry Strips
Description: PAS staining for glycoproteins was done by the method of Zacharius, RM et al (1969; Anal Biochem, 30, 148-152) using ovalbumin (3.2% carbohydrate) as a positive control sample. The pI values of Mj-AMP1 and Mj-AMP2 were determined by isoelectric focusing and found to be about 10.5 for both proteins. Isoelectric focussing was done on precast Immobiline Dry Strips (Pharmacia) using marker proteins in the pI range from 4.7 to 10.6 (Pharmacia).

[21] = MEDIUM +Ca/K (1 mM CaCl2 and 50 mM KCl)

In the case of “Mj-AMP1: antimicrobial protein from Mirabilis jalapa seeds, dimer of two 4 kDa subunits, 37 residues, SEQ ID NO:1 (QCIGNGGRCNENVGPPYCCSGFCLRQPGQGYGYCKNR; cysteine pairing not given here; also: homodimer)”, the IC50 [1] is reported as 25 µg/mL, the “Relative antifungal activity (shown as % of control activity)” value ([2]; 80° C., 10 min) is reported as 100 % of control activity and the “Relative antifungal activity (shown as % of control activity)” value ([2]; 90° C., 10 min) is reported as 100 % of control activity. For the same substance, the “Relative antifungal activity (shown as % of control activity)” value ([2]; 100° C., 10 min) was 100 % of control activity, the “Relative antifungal activity (shown as % of control activity)” value ([2]; Chymotrypsin digestion, 100 μg/ml, 37° C., 16 hours) was 12 % of control activity and the “Relative antifungal activity (shown as % of control activity)” value ([2]; Control: Mj-AMP1 500 μg/ml or Mj-AMP2 100 μg/ml in 10 mM sodium phosphate buffer pH 7) was 100 % of control activity. For the same substance, the “Relative antifungal activity (shown as % of control activity)” value ([2]; Pronase E digestion, 100 μg/ml, 37° C., 16 hours) was 50 % of control activity, the “Relative antifungal activity (shown as % of control activity)” value ([2]; Proteinase K digestion, 100 μg/ml, 37° C., 16 hours) was 100 % of control activity and the “Relative antifungal activity (shown as % of control activity)” value ([2]; Reduction: DTT 2.5 mM, 37° C., 2 hours) was < 6 % of control activity. The “Relative antifungal activity (shown as % of control activity)” value ([2]; Trypsin digestion, 100 μg/ml, 37° C., 16 hours) was 75 % of control activity, the “Sensitivity to protease (in words)” value ([2]; chymotrypsin) was “sensitive” and the “Relative antifungal activity (shown as % of control activity)” value ([2]; pH 2, 60 min) was 100 % of control activity. The “Relative antifungal activity (shown as % of control activity)” value ([2]; pH 3, 60 min) was 100 % of control activity, the “Relative antifungal activity (shown as % of control activity)” value ([2]; pH 10, 60 min) was 100 % of control activity and the “Relative antifungal activity (shown as % of control activity)” value ([2]; pH 11, 60 min) was 100 % of control activity. The “Sensitivity to protease (in words)” value ([2]; pronase E) was “resisted almost completely”, the “Sensitivity to protease (in words)” value ([2]; proteinase K) was “resisted almost completely” and the “Sensitivity to protease (in words)” value ([2]; trypsin) was “resisted almost completely”. The IC50 [3] was 6 µg/mL, the IC50 [4] was 15 µg/mL and the “Inhibitory activity against yeast” value ([5]; with Ca/K, 5 μg/ml) was “-”. The “Inhibitory activity against yeast” value ([5]; with Ca/K, 50 μg/ml) was “-”, the “Inhibitory activity against yeast” value ([5]; with Ca/K, 500 μg/ml) was “+++” and the “Inhibitory activity against yeast” value ([5]; without Ca/K, 5 μg/ml) was “+”. For the same substance, the “Inhibitory activity against yeast” value ([5]; without Ca/K, 50 μg/ml) was “+++”, the “Inhibitory activity against yeast” value ([5]; without Ca/K, 500 μg/ml) was “+++” and the IC50 [6] was 20 µg/mL. The IC50 [7] was 200 µg/mL, the IC50 [8] was 200 µg/mL and the IC50 [9] was 300 µg/mL. For the same substance, the IC50 [10] was 12 µg/mL, the IC50 ([11]; 48 hours of incubation) was 6 µg/mL and the IC50 ([11]; after 72 hours) was 12 µg/mL. It also gave an IC50 [12] of 15 µg/mL, an IC50 [13] of 60 µg/mL and an IC50 [14] of 12 µg/mL. For the same substance, the IC50 [15] was 30 µg/mL, the IC50 [16, 21] was greater than 500 µg/mL and the IC50 ([16]; MEDIUM -Ca/K) was greater than 500 µg/mL. It also gave an IC50 [17, 21] greater than 500 µg/mL, an IC50 ([17]; MEDIUM -Ca/K) greater than 500 µg/mL and an IC50 [18, 21] greater than 500 µg/mL. It also gave an IC50 ([18]; MEDIUM -Ca/K) of 100 µg/mL, an IC50 [19, 21] of 20 µg/mL and an IC50 ([19]; MEDIUM -Ca/K) of 6 µg/mL. The pI [20] was “about 10.5”.

Reference: patent US5942663A, “Biocidal proteins” (Zeneca Limited, priority 1991, dated 1999)
